# Results: ChEMBL document CHEMBL6127029, “Glutathione-dependent degradation of SMARCA2/4 for targeted lung cancer therapy with improved selectivity” (Eur J Med Chem, 2024)
# Activity calls are given as the source filed them. The rule behind the calls is not given here.
# Columns and labels:
# [1] = target: T1, von Hippel-Lindau disease tumor suppressor/SWI/SNF-related matrix-associated actin-dependent regulator of chromatin subfamily A member 2 (Homo sapiens) (UniProt P51531+P40337); test: PROTAC activity at VHL/SMARCA2 in human HEK-293T cells assessed as induction of SMARCA2 degradation at 1 uM incubated for 24 hrs by Western blotting analysis relative to control; format: cell-based
# [2] = target: T1, von Hippel-Lindau disease tumor suppressor/SWI/SNF-related matrix-associated actin-dependent regulator of chromatin subfamily A member 2 (Homo sapiens); test: PROTAC activity at VHL/SMARCA2 in human 786-0 cells harboring mutated VHL assessed as induction of SMARCA2 degradation at 0.1 to 5 uM incubated for 8 hrs by Western blotting analysis; format: cell-based; conditions: dose 0.1-5 µM
# [3] = target: T2, von Hippel-Lindau disease tumor suppressor/SWI/SNF-related matrix-associated actin-dependent regulator of chromatin subfamily A member 4 (Homo sapiens) (UniProt P51532+P40337); test: PROTAC activity at VHL/SMARCA4 in human 786-0 cells harboring mutated VHL assessed as induction of SMARCA4 degradation at 0.1 to 5 uM incubated for 8 hrs by Western blotting analysis; format: cell-based; conditions: dose 0.1-5 µM
# [4] = target: T1, von Hippel-Lindau disease tumor suppressor/SWI/SNF-related matrix-associated actin-dependent regulator of chromatin subfamily A member 2 (Homo sapiens); test: PROTAC activity at VHL/SMARCA2 in human A549 cells assessed as induction of SMARCA2 degradation at 1 uM by Western blotting analysis; format: cell-based; conditions: TDE = time-dependent effect
# [5] = Cytotoxicity against human HuLEC-5a cells assessed as inhibition of cell growth incubated for 3 days by MTT assay; format: toxicity, cell-based
# [6] = target: T1, von Hippel-Lindau disease tumor suppressor/SWI/SNF-related matrix-associated actin-dependent regulator of chromatin subfamily A member 2 (Homo sapiens); test: PROTAC activity at VHL/SMARCA2 in human NCI-H1299 cells assessed as induction of SMARCA2 degradation at 1 uM by Western blotting analysis; format: cell-based; conditions: TDE = time-dependent effect
# [7] = target: T1, von Hippel-Lindau disease tumor suppressor/SWI/SNF-related matrix-associated actin-dependent regulator of chromatin subfamily A member 2 (Homo sapiens); test: PROTAC activity at VHL/SMARCA2 in human HEK-293T cells assessed as induction of SMARCA2 degradation at 1 uM by Western blotting analysis; format: cell-based; conditions: TDE = time-dependent effect
# A549 [8] = test: Inhibition of cell migration in human A549 cells at 10 uM incubated for 36 hrs by scratch wound healing based fluorescent microscopic analysis; format: functional
# [9] = target: T1, von Hippel-Lindau disease tumor suppressor/SWI/SNF-related matrix-associated actin-dependent regulator of chromatin subfamily A member 2 (Homo sapiens); test: PROTAC activity at VHL/SMARCA2 in human A549 cells assessed as induction of SMARCA2 degradation at 1 uM pretreated with MLN4924 followed by compound addition and measured after 8 hrs by Western blotting analysis; format: cell-based
# [10] = target: T1, von Hippel-Lindau disease tumor suppressor/SWI/SNF-related matrix-associated actin-dependent regulator of chromatin subfamily A member 2 (Homo sapiens); test: PROTAC activity at VHL/SMARCA2 in human A549 cells assessed as induction of SMARCA2 degradation at 1 uM pretreated with MG132 followed by compound addition and measured after 8 hrs by Western blotting analysis; format: cell-based
# [11] = target: T2, von Hippel-Lindau disease tumor suppressor/SWI/SNF-related matrix-associated actin-dependent regulator of chromatin subfamily A member 4 (Homo sapiens); test: PROTAC activity at VHL/SMARCA4 in human HEK-293T cells assessed as induction of SMARCA4 degradation at 1 uM by Western blotting analysis; format: cell-based; conditions: TDE = time-dependent effect
# [12] = target: T1, von Hippel-Lindau disease tumor suppressor/SWI/SNF-related matrix-associated actin-dependent regulator of chromatin subfamily A member 2 (Homo sapiens); test: PROTAC activity at VHL/SMARCA2 in human NCI-H1299 cells harboring shRNA mediated VHL knockdown assessed as induction of SMARCA2 degradation at 0.1 to 2 uM incubated for 8 hrs by Western blotting analysis; format: cell-based; conditions: dose 0.1-2 µM
# [13] = target: T1, von Hippel-Lindau disease tumor suppressor/SWI/SNF-related matrix-associated actin-dependent regulator of chromatin subfamily A member 2 (Homo sapiens); test: PROTAC activity at VHL/SMARCA2 in human HuLEC-5a cells assessed as induction of SMARCA2 degradation at 1 uM by Western blotting analysis; format: cell-based; conditions: TDE = time-dependent effect
# [14] = target: T2, von Hippel-Lindau disease tumor suppressor/SWI/SNF-related matrix-associated actin-dependent regulator of chromatin subfamily A member 4 (Homo sapiens); test: PROTAC activity at VHL/SMARCA4 in human HEK-293T cells assessed as induction of SMARCA4 degradation at 1 uM incubated for 24 hrs by Western blotting analysis relative to control; format: cell-based
# A549 [15] = test: Cytotoxicity against human A549 cells assessed as inhibition of cell growth incubated for 3 days by MTT assay; format: functional, cell-based; conditions: A549, 72 h
# [16] = target: T1, von Hippel-Lindau disease tumor suppressor/SWI/SNF-related matrix-associated actin-dependent regulator of chromatin subfamily A member 2 (Homo sapiens); test: PROTAC activity at VHL/SMARCA2 in human A549 cells assessed as induction of SMARCA2 degradation at 1 uM incubated for 24 hrs by Western blotting analysis; format: cell-based
# [17] = target: T1, von Hippel-Lindau disease tumor suppressor/SWI/SNF-related matrix-associated actin-dependent regulator of chromatin subfamily A member 2 (Homo sapiens); test: PROTAC activity at VHL/SMARCA2 in human A549 cells harboring shRNA mediated VHL knockdown assessed as induction of SMARCA2 degradation at 0.1 to 2 uM incubated for 8 hrs by Western blotting analysis; format: cell-based; conditions: dose 0.1-2 µM
# [18] = target: T2, von Hippel-Lindau disease tumor suppressor/SWI/SNF-related matrix-associated actin-dependent regulator of chromatin subfamily A member 4 (Homo sapiens); test: PROTAC activity at VHL/SMARCA4 in human HuLEC-5a cells assessed as induction of SMARCA4 degradation at 1 uM by Western blotting analysis; format: cell-based; conditions: TDE = time-dependent effect
# HuLEC-5a = test: Inhibition of cell migration in human HuLEC-5a cells at 10 uM incubated for 36 hrs by scratch wound healing based fluorescent microscopic analysis; format: functional
# NCI-H1299 = test: Cytotoxicity against human NCI-H1299 cells assessed as inhibition of cell growth incubated for 3 days by MTT assay; format: functional, cell-based; conditions: NCI-H1299, 72 h
# T2 sequence (P40337 whole entry, looked up): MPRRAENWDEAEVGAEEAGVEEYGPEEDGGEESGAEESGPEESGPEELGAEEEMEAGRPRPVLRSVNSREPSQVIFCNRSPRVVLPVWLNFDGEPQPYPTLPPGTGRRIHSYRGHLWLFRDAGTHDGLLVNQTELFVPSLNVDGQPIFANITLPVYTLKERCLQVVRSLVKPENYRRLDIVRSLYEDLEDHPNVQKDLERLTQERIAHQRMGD
# T2 sequence (P51532 whole entry, looked up): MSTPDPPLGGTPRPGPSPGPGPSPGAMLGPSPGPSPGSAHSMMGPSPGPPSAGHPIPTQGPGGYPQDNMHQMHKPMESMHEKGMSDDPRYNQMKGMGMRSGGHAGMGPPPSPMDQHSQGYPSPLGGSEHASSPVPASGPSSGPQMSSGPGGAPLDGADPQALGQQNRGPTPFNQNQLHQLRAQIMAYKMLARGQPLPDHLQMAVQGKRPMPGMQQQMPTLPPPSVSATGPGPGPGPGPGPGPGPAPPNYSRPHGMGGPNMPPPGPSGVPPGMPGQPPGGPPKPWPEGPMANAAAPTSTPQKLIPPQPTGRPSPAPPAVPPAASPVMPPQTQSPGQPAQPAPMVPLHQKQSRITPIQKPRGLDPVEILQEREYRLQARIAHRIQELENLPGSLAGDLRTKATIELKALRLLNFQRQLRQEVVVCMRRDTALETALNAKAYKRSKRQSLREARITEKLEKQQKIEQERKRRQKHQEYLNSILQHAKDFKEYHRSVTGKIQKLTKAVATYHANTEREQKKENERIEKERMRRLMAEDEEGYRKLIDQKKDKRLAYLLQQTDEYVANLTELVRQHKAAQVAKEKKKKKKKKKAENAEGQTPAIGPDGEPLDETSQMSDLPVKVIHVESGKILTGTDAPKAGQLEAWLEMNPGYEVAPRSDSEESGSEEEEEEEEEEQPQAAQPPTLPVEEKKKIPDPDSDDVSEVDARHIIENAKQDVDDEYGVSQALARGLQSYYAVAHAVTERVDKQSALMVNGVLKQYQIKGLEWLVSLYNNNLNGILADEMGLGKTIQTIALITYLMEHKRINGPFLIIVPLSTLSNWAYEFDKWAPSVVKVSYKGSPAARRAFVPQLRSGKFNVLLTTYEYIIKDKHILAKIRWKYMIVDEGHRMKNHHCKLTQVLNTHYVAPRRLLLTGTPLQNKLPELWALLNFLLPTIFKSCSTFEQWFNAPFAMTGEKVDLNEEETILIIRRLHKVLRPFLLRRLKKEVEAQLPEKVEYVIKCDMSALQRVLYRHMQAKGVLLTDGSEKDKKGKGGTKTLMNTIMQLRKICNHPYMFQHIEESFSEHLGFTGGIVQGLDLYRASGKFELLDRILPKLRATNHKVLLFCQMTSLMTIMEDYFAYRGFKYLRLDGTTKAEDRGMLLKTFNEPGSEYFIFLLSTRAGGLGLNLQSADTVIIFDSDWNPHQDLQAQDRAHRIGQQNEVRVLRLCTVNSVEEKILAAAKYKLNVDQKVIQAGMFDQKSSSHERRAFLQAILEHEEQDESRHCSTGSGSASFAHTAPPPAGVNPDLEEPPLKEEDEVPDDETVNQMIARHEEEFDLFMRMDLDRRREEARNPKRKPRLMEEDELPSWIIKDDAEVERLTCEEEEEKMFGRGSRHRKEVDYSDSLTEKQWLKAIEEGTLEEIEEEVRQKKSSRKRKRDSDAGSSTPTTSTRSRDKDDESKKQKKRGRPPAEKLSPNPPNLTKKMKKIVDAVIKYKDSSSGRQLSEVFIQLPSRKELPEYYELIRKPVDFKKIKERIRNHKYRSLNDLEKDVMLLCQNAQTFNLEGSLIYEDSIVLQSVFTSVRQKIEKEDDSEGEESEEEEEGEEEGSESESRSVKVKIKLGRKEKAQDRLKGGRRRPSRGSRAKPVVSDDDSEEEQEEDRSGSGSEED
# T1 sequence (P40337 whole entry, looked up): as the sequence (P40337 whole entry, looked up) above
# T1 sequence (P51531 whole entry, looked up): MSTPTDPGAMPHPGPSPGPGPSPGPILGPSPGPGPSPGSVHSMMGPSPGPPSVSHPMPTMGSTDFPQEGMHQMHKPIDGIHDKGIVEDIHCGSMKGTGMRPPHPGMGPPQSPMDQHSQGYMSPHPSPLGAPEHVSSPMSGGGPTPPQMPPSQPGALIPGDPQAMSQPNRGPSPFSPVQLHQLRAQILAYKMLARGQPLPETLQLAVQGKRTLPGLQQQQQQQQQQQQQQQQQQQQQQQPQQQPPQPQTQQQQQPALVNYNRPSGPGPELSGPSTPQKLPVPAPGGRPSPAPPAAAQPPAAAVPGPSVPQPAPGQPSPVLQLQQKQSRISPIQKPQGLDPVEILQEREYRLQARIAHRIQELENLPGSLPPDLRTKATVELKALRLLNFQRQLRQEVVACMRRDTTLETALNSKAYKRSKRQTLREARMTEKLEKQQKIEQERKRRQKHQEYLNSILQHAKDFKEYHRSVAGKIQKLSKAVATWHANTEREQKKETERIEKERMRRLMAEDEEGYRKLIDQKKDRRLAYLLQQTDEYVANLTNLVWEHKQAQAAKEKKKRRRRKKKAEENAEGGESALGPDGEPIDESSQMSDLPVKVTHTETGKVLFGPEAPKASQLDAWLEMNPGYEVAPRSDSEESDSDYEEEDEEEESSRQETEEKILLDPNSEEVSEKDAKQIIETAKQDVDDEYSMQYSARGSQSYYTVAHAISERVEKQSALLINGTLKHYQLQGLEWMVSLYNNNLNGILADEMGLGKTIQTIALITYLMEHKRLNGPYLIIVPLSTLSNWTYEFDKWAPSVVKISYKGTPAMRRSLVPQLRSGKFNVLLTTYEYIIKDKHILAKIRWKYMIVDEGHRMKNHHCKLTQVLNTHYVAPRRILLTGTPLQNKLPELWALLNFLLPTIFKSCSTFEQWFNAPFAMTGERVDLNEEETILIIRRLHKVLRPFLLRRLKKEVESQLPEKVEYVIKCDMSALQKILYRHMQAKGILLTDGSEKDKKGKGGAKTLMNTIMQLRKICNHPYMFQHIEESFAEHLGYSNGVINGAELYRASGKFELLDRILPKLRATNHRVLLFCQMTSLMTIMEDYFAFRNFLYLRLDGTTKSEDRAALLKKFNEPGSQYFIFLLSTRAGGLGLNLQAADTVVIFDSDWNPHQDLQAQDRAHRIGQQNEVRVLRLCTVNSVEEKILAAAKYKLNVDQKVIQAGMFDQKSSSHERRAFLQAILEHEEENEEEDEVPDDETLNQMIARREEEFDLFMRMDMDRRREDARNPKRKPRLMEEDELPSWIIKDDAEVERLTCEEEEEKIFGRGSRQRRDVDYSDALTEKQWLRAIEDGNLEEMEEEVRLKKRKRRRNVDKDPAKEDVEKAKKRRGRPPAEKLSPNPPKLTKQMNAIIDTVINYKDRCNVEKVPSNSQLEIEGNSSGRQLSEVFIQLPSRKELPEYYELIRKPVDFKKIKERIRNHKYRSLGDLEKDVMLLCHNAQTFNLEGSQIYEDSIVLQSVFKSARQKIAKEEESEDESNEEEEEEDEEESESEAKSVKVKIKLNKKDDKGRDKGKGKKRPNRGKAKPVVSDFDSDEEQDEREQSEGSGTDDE
smiles,measurement,setting,value
Cc1ncsc1-c1ccc(CNC(=O)[C@@H]2C[C@@H](O)CN2C(=O)[C@@H](NC(=O)CN2CCN(c3cc(-c4ccccc4O)nnc3N)CC2)C(C)(C)C)cc1,Activity,[1],< 10%
same,Activity,[2],inactive
same,Activity,[3],inactive
same,Activity,[4],Tde
same,IC50 at 3 days,[5],24.5 µM
same,Activity,[6],Tde
same,Activity,[7],Tde
same,inhibition,A549 [8],Active
same,Activity,[9],inactive
same,Activity,[10],inactive
same,Activity,[11],Tde
same,Activity,[12],inactive
same,Activity,[13],Tde
same,Activity,[14],< 10%
same,IC50,A549 [15],1.3 µM
same,Activity,[16],Active
same,Activity,[17],inactive
same,Activity,[18],Tde
same,inhibition,HuLEC-5a,inactive
same,IC50,NCI-H1299,1.4 µM
